Read-outs that look alike come from different tables or passages of the source.

For data set [1], the system named is HCV genotype 1b subgenomic Huh 5-2 replicon system. Nature of the data set: Antiviral effect on HCV 1b subgenomic replicon replication in Huh 5-2 cells. Format: cell-based, Hepatitis C virus. The protocol:
(§1) The antiviral activity of conjugated compounds 3a–g, 7a–e, 9a,b,d–f, and 11b,e,f in the HCV genotype 1b subgenomic Huh 5-2 replicon system was evaluated according to established procedures. On the basis of the dose-response curves that were obtained, the concentration of a compound that inhibited virus replication by 50% (i.e., EC50) and the concentration of compound that reduced host cell metabolism by 50% (i.e., CC50) were obtained. These values subsequently allowed us to calculate the selectivity index (i.e., SI = CC50/EC50), which is a measure for the therapeutic window of the compound in an assay system. […] The observed antiviral effect of other compounds was most likely related mainly to the pleiotropic or aspecific effect on the host cell.
(In general: A replicon is a self-replicating genome or part of one, used to study replication in cells.)

A short description of data set [2]: Anti-metabolic effect on host cell metabolism (MTS method) in Huh 5-2 replicon cells. It is filed as cell-based. The settings on record: human, Huh 5-2 cells (HCV genotype 1b subgenomic replicon), concentration reducing host cell metabolism by 50%, average of triplicate determinations. The protocol: as §1
Background: Tetrazolium dyes change colour on reduction, which living cells bring about.

In data set [3] the test system is Huh 5-2 cells. Also on record: method as in PMID 17977606. Particulars: host cell metabolism, MTS method, reference known compounds, ref [11]; cited from earlier work.
Data set [4] concerns HCV genotype 1b subgenomic Huh 5-2 replicon system. Also on record: method as in PMID 17977606. Particulars: HCV 1b subgenomic replicon in Huh 5-2 cells; reference known compounds; ref [11]; cited from earlier work.
The test system of data set [5] is Huh 5-2 cells. Nature of the data set: Anti-metabolic effect on host cell metabolism (MTS method) in Huh 5-2 replicon cells. It is filed as cell-based. Particulars: concentration reducing host cell metabolism by 50%, average of triplicate determinations. The procedure: as §1

For the compound `O=c1oc2ccccc2cc1CSc1ncc[nH]1` [Compound 3a, 2-[(Coumarin-3’-yl)methylthio]imidazole], the melting point (usually the temperature, or range, at which the solid turns liquid) lay in the range of 252 to 252.8 °C. Also, in data set [1] (Hepatitis C virus, Huh-5-2), the response was half-maximal at 30 µM (EC50). Besides, in data set [2], half-maximal cytotoxicity (CC50) was put at 122 µM.
Take `O=c1oc2ccc(F)cc2cc1CSc1ncc[nH]1` [Compound 3b, 2-[(6′-Fluorocoumarin-3′-yl)methylthio]imidazole]: the melting point was in the range of 258.6 to 259.4 °C. Further, the EC50 – broadly, the concentration needed to bring the measured effect to its halfway point – in data set [1] (Hepatitis C virus, Huh-5-2) was 7.2 µM. For the same compound, the midpoint of cytotoxicity in data set [2], the CC50, lay at 83 µM.
Take `O=c1oc2ccc(Cl)cc2cc1CSc1ncc[nH]1` [Compound 3c, 2-[(6′-Chlorocoumarin-3′-yl)methylthio]imidazole]: the melting point was in the range of 266.2 to 270 °C. Also, in data set [1] (Hepatitis C virus, Huh-5-2), the EC50 was determined as 9.7 µM. For the same compound, the CC50 (as a rule, the concentration that lowers cell viability or growth by half) in data set [2] stood at 85 µM.
For `O=c1oc2ccc(Br)cc2cc1CSc1ncc[nH]1` [Compound 3d, 2-[(6′-Bromocoumarin-3′-yl)methylthio]imidazole], the melting point was 276.8 to 277.4 °C. In data set [1] (Hepatitis C virus, Huh-5-2), the response was half-maximal at 5.1 µM (EC50). The compound also had a CC50 in data set [2] of 75 µM.
`COc1cccc2cc(CSc3ncc[nH]3)c(=O)oc12` [Compound 3e, 2-[(8′-Methoxycoumarin-3′-yl)methylthio]imidazole]: the melting point lay within 269.8 to 270.6 °C. In data set [1] (Hepatitis C virus, Huh-5-2), this compound registered an EC50 of 8.4 µM. The cytotoxic concentration (CC50) in data set [2] is 173 µM.
The corresponding values for `Cn1ccnc1SCc1cc2ccccc2oc1=O` [Compound 3f, 1-Methyl-2-[(coumarin-3′-yl)methylthio]imidazole] are 244.2 to 244.8 °C, 6.7 µM and 49 µM.
`Cn1ccnc1SCc1cc2cc(Cl)ccc2oc1=O` [Compound 3g, 1-Methyl-2-[(6′-chlorocoumarin-3′-yl)methylthio]imidazole] registered a melting point of 256.2 to 257.2 °C. Further, the EC50 in data set [1] (Hepatitis C virus, Huh-5-2) amounted to 15 µM. Besides, in data set [2], the midpoint of cytotoxicity, the CC50, lay at 75 µM.
Regarding `O=c1oc2ccccc2cc1CSc1nccn1[C@@H]1O[C@H](CO)[C@@H](O)[C@H]1O` [Compound 7a, 1-(β-D-Ribofuranos-1″-yl)-2-[(coumarin-3′-yl)methylthio]imidazole], the melting point lay in the range of 164.6 to 165.4 °C. This compound came in with an EC50 in data set [1] (Hepatitis C virus, Huh-5-2) of 59 µM. This compound also registered a CC50 in data set [2] of 128 µM.
With `O=c1oc2ccc(F)cc2cc1CSc1nccn1[C@@H]1O[C@H](CO)[C@@H](O)[C@H]1O` [Compound 7b, 1-(β-D-Ribofuranos-1″-yl)-2-[(6′-fluorocoumarin-3′-yl)methylthio]imidazole], the melting point lay in the range of 171.2 to 172.4 °C. It took 26 µM to reach a half-maximal effect in data set [1] (Hepatitis C virus, Huh-5-2) (EC50). For the same compound, the CC50 in data set [2] turned out to be 122 µM.
As for `O=c1oc2ccc(Cl)cc2cc1CSc1nccn1[C@@H]1O[C@H](CO)[C@@H](O)[C@H]1O` [Compound 7c, 1-(β-D-Ribofuranos-1″-yl)-2-[(6′-chlorocoumarin-3′-yl)methylthio]imidazole], the melting point lay within 178.8 to 179.6 °C. The same compound gave an EC50 in data set [1] (Hepatitis C virus, Huh-5-2) of 14 µM. The same compound returned a CC50 in data set [2] of 85 µM.
In turn, `O=c1oc2ccc(Br)cc2cc1CSc1nccn1[C@@H]1O[C@H](CO)[C@@H](O)[C@H]1O` [Compound 7d, 1-(β-D-Ribofuranos-1″-yl)-2-[(6′-bromocoumarin-3′-yl)methylthio]imidazole] registered a melting point of 188.8 to 189.4 °C. In data set [1] (Hepatitis C virus, Huh-5-2), this compound showed an EC50 of 19 µM. In data set [2], this compound returned a half-maximal cytotoxic concentration (CC50) of 107 µM.
The compound `COc1cccc2cc(CSc3nccn3[C@@H]3O[C@H](CO)[C@@H](O)[C@H]3O)c(=O)oc12` [Compound 7e, 1-(β-D-Ribofuranos-1″-yl)-2-[(8′-methoxycoumarin-3′-yl)methylthio]imidazole] had a melting point of 169.6 to 170.4 °C. For the same compound, the EC50 in data set [1] (Hepatitis C virus, Huh-5-2) was found to be 34 µM. The midpoint of cytotoxicity in data set [2], the CC50, lay at 119 µM.
The compound `O=c1oc2ccccc2cc1CSc1nc2c(=O)[nH]cnc2n1[C@@H]1O[C@H](CO)[C@@H](O)[C@H]1O` [Compound 9a, 8-[(Coumarin-3′-yl)methylthio]inosine] yielded an EC50 in data set [1] (Hepatitis C virus, Huh-5-2) of 61 µM. In addition, half-maximal cytotoxicity in data set [2] (CC50) was put at 109 µM.
As for `O=c1oc2ccc(F)cc2cc1CSc1nc2c(=O)[nH]cnc2n1[C@@H]1O[C@H](CO)[C@@H](O)[C@H]1O` [Compound 9b, 8-[(6′-Fluorocoumarin-3′-yl)methylthio]inosine], the EC50 in data set [1] (Hepatitis C virus, Huh-5-2) worked out at 73 µM. Also, the CC50 in data set [2] is 105 µM.
Compound `O=c1oc2ccc(Br)cc2cc1CSc1nc2c(=O)[nH]cnc2n1[C@@H]1O[C@H](CO)[C@@H](O)[C@H]1O` [Compound 9d, 8-[(6′-Bromocoumarin-3′-yl)methylthio]inosine] returned an EC50 in data set [1] (Hepatitis C virus, Huh-5-2) of 70 µM. In data set [2], this compound returned a half-maximal cytotoxic concentration (CC50) of 93 µM.
With `COc1cccc2cc(CSc3nc4c(=O)[nH]cnc4n3[C@@H]3O[C@H](CO)[C@@H](O)[C@H]3O)c(=O)oc12` [Compound 9e, 8-[(8′-Methoxycoumarin-3′-yl)methylthio]inosine], in data set [1] (Hepatitis C virus, Huh-5-2), the EC50 was found to be 102 µM. The CC50 in data set [2] stood at 102 µM.
`Cc1ccc2oc(=O)c(CSc3nc4c(=O)[nH]cnc4n3[C@@H]3O[C@H](CO)[C@@H](O)[C@H]3O)cc2c1` [Compound 9f, 8-[(6′-Methylcoumarin-3′-yl)methylthio]inosine] returned an EC50 in data set [1] (Hepatitis C virus, Huh-5-2) of 106 µM. The same compound displayed a CC50 in data set [2] of 106 µM.
In the case of `Nc1nc2c(nc(SCc3cc4cc(F)ccc4oc3=O)n2[C@@H]2O[C@H](CO)[C@@H](O)[C@H]2O)c(=O)[nH]1` [Compound 11b, 8-[(6′-Fluorocoumarin-3′-yl)methylthio]guanosine], a half-maximal effect in data set [1] (Hepatitis C virus, Huh-5-2) (EC50) was put at 102 µM. Moreover, in data set [2], the CC50 turned out to be 102 µM.
`COc1cccc2cc(CSc3nc4c(=O)[nH]c(N)nc4n3[C@@H]3O[C@H](CO)[C@@H](O)[C@H]3O)c(=O)oc12` [Compound 11e, 8-[(8′-Methoxycoumarin-3′-yl)methylthio]guanosine] showed an EC50 in data set [1] (Hepatitis C virus, Huh-5-2) of 99 µM. This compound also had a cytotoxic concentration (CC50) in data set [2] of 99 µM.
In data set [1] (Hepatitis C virus, Huh-5-2), `Cc1ccc2oc(=O)c(CSc3nc4c(=O)[nH]c(N)nc4n3[C@@H]3O[C@H](CO)[C@@H](O)[C@H]3O)cc2c1` [Compound 11f, 8-[(6′-Methylcoumarin-3′-yl)methylthio]guanosine] displayed an EC50 of 103 µM. The same compound came in with a CC50 in data set [2] of 103 µM.
For the compound `O=c1oc2ccccc2cc1CSc1nc2ccccc2[nH]1` [Compound 12a], the CC50 in data set [3] was 90 µM. Further, the EC50 in data set [4] is 27 µM.
For `O=c1oc2ccc(Br)cc2cc1CSc1nc2ccccc2[nH]1` [Compound 12d], the half-maximal cytotoxic concentration (CC50) in data set [3] was 42 µM. Besides, the concentration for a half-maximal effect (EC50) in data set [4] is 4 µM.
`COc1cccc2cc(CSc3nc4ccccc4[nH]3)c(=O)oc12` [Compound 12e]: in data set [3], the CC50 was 27 µM. In addition, the EC50 in data set [4] was 10 µM.
`O=c1ccc2ccccc2o1` [coumarin] came in with an EC50 in data set [1] (Hepatitis C virus, Huh-5-2) of over 150 µM. The same compound returned a CC50 in data set [2] of over 500 µM.
Regarding `c1c[nH]cn1` [imidazole], the concentration giving a half-maximal response (EC50) in data set [1] (concentration inhibiting virus replication by 50%, real-time quantitative RT-PCR, HCV 1b Huh 5-2 replicon, average of triplicate determinations, read-out: EC50) was over 150 µM. The compound further registered a CC50 in data set [5] of over 500 µM.
